Data published in patent US8697747B2, “Enhancing coagulation or reducing fibrinolysis” (THe UAB Research Foundation, priority 2009, dated 2014).

System: pooled normal plasma
Assay: CLSM thrombelastography with tPA in undiluted and 30% diluted plasma
Type: biochemical, human
Settings: tPA 100 IU/mL, 100 μM CORM-2, median, n=8
Source text: Plasma and volume expanders. Pooled normal plasma (George King Bio-Medical, Overland Park, Kans.) anticoagulated with sodium citrate was utilized for experimentation. […] The volume expanders tested were 0.9% NaCl (Abbott Laboratories, North Chicago, Ill.; also designated as NS) and 6% hydroxylethyl starch (HES) in 0.9% NaCl (VOLUVEN®, average molecular weight 130 kDa, 0.4 degree of substitution, C2:C6 ratio of substitution 11.2; Fresenius Kabi, Bad Homburg, Germany; also referred to as VOL).
Plasma sample composition of experiments with tissue-type plasminogen activator addition. As in the first series of experiments, the final volume of plasma sample mixtures was 359.6 μL. Sample composition consisted of 316 μL of plasma/volume expander, 10 μL of tissue factor reagent (0.1% final concentration), 3.6 μL of DMSO without or with CORM-2 (100 μM final concentration), 10 μL of tissue-type plasminogen activator (tPA, 580 U/μg, Genentech, Inc., San Francisco, Calif.) diluted with 10 mM potassium phosphate buffer (pH 7.4) for a final activity of 100 IU/mL, and 20 μL of 200 mM CaCl2. As with tissue factor reagent, tPA stock was kept on ice prior to use and was remade every two hours. Plasma was diluted 0% or 30% with NS or VOL (n=8 per condition).
Clot Lifespan Model (CLSM) Analyses. Plasma sample mixtures were placed in a disposable cup in a computer-controlled THROMBELASTOGRAPH® hemostasis system (Model 5000, Haemoscope Corp., Niles, Ill.), with addition of CaCl2 as the last step to initiate clotting. In the first series of experiments, no tPA was added, so data were collected until clot strength (maximum amplitude) was stable. In the second series of experiments which in tPA was added, data were collected until clot lysis time occurred. […] Additional elastic modulus-based parameters were determined and the nomenclature used to describe these phenomena is as follows: Time to maximum rate of thrombus generation (TMRTG): This is the time interval (sec) observed prior to maximum speed of clot growth. Maximum rate of thrombus generation (MRTG): This is the maximum velocity of clot growth observed (dynes/cm^2/sec). Total Thrombus Generation (TTG): This is the total area under the velocity curve during clot growth (dynes/cm^2), representing the amount of clot strength generated during clot growth. Time to maximum rate of lysis (TMRL): This is the time interval (sec) measured from the time of maximum strength to the time when the velocity of clot disintegration is maximal. Maximum Rate of Lysis (MRL): This is the maximum velocity of clot disintegration observed (−dynes/cm^2/sec). Area of Clot Lysis (ACL): This is the total area under the velocity curve during clot disintegration (−dynes/cm^2), representing the amount of clot strength lost during clot disintegration. As this model involves complete fibrinolysis, TTG is equivalent to ACL, so ACL was not presented as it provides no additional information.
Statistical Analyses. Data obtained from pooled normal plasma not exposed to tPA were graphically represented with commercially available software (SigmaPlot 11.0, Systat Software, Inc., San Jose, Calif.), and kinetic modeling of thrombelastographic data performed with the same software. Analyses of the effects of hemodilution and CORM-2 on CLSM variables obtained from pooled normal plasma were conducted using Kruskal-Wallis one way analysis of variance with Student-Newman-Keuls post-hoc test. […] These analyses were conducted with the same commercially available software (SigmaPlot 11.0). A P value of <0.05 was considered significant.

[C-]#[O+].[C-]#[O+].[C-]#[O+].[C-]#[O+].[C-]#[O+].[C-]#[O+].[Cl][Ru][Cl].[Cl][Ru][Cl] [CORM-2, tricarbonyldichlororuthenium (II) dimer]
CGT (clot growth time) (plasma diluted 30% with NS): 8.0 min
CLS (clot lifespan) (plasma diluted 30% with NS): 38.7 min
CLT (clot lysis time) (plasma diluted 30% with NS): 31.5 min
MRL (maximum rate of lysis) (plasma diluted 30% with NS): −1.9 −dynes/cm^2/sec
MRTG (maximum rate of thrombus generation) (plasma diluted 30% with NS): 11.2 dynes/cm^2/sec
TMRL (time to maximum rate of lysis) (plasma diluted 30% with NS): 23.4 min
TMRTG (time to maximum rate of thrombus generation) (plasma diluted 30% with NS): 2.00 min
TTG (total thrombus generation) (plasma diluted 30% with NS): 206 dynes/cm^2
CGT (clot growth time) (plasma diluted 30% with VOL): 2.2 min
CLS (clot lifespan) (plasma diluted 30% with VOL): 10.0 min
CLT (clot lysis time) (plasma diluted 30% with VOL): 8.0 min
MRL (maximum rate of lysis) (plasma diluted 30% with VOL): −0.9 −dynes/cm^2/sec
MRTG (maximum rate of thrombus generation) (plasma diluted 30% with VOL): 3.8 dynes/cm^2/sec
TMRL (time to maximum rate of lysis) (plasma diluted 30% with VOL): 5.2 min
TMRTG (time to maximum rate of thrombus generation) (plasma diluted 30% with VOL): 2.0 min
TTG (total thrombus generation) (plasma diluted 30% with VOL): 62 dynes/cm^2
CGT (clot growth time) (undiluted plasma): 8.1 min
CLS (clot lifespan) (undiluted plasma): 31.6 min
CLT (clot lysis time) (undiluted plasma): 24.3 min
MRL (maximum rate of lysis) (undiluted plasma): −3.0 −dynes/cm^2/sec
MRTG (maximum rate of thrombus generation) (undiluted plasma): 13.9 dynes/cm^2/sec
TMRL (time to maximum rate of lysis) (undiluted plasma): 17.7 min
TMRTG (time to maximum rate of thrombus generation) (undiluted plasma): 2.1 min
TTG (total thrombus generation) (undiluted plasma): 285 dynes/cm^2
